Measured values reported in patent publication US9932339B2, “Helquats with heteroaromatic substituents, preparation thereof, and use thereof as G-quadruplex stabilizers” (USTAV ORGANICKE CHEMIE A BIOCHEMIE AV CR, V.V.I., priority 2014, dated 2018).
Read-outs that look alike come from different tables or passages of the source.

Key:
HUVEC = assay: XTT cytotoxicity/proliferation assay, HUVEC; format: cell-based, human; details: Homo sapiens, HUVEC
Summary of the method: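 HUVEC (passages 3–8, collagen I-coated dishes, E-STIM medium) plated at 3000 cells/well, dosed next day with compounds in water. After 72 h at 37 °C, XTT added for 2 h; absorbance at 492 nm (reference 690 nm) against untreated and medium-only controls.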

[1] = system: G-quadruplex oligonucleotide F21T (human telomere); assay: FRET melting of G-quadruplex oligonucleotide F21T with ligands; format: binding; details: for ΔTm (° C.) F21T/ds26: helquat 1 μmol·l^−1, oligonucleotide 0.2 μmol·l^−1, 50-fold excess of double-stranded competitor ds26; for ΔTm (° C.) F21T: helquat 1 μmol·l^−1, oligonucleotide 0.2 μmol·l^−1, without competitor
Description: To determine the degree of in vitro interactions of helquats with G-quadruplex(es), the oligonucleotides containing the guanine-rich sequences of human telomere (F21T) and NHE III1 promoter region of c-myc oncogene (Fmyc27T) were used. Both oligonucleotides capable of forming an intramolecular G-quadruplex were end-labeled with suitable fluorophores so as to form donor-acceptor FRET pair (5′-FAM and 3′-TAMRA). If the oligonucleotide is folded into the structure of the G-quadruplex, donor is in close proximity of acceptor and radiationless energy transfer to the acceptor occurs. With increasing temperature of the reaction mixture G-quadruplex structure gradually denatures and thus the donor and acceptor (FAM-TAMRA) drift apart. This leads to an increase in fluorescence of donor (FAM) and a decrease in fluorescence of acceptor (TAMRA).
The result of measurement is the curve of dependence of the intensity of fluorescence of the donor on the temperature. If the G-quadruplex is stabilized by ligand, melting temperature will increase. Melting temperature of G-quadruplex corresponds to the temperature when 50% of the original amount of the folded G-quadruplex is denatured. The measurement outcome is the difference in the melting temperatures (ΔTm) of the G-quadruplex alone and the G-quadruplex stabilized by ligand. In case of Fmyc27T experiments were performed in cacodylate buffer (10 mmol·l^−1, pH=7.2) with KCl (5 mmol·l^−1) and LiCl (95 mmol·l^−1) oligonucleotide and in case of F21T oligonucleotide in cacodylate buffer (10 mmol·l^−1, pH=7.2) with KCl (25 mmol·l^−1) and LiCl (75 mmol·l^−1).
Both oligonucleotides were denatured for 5 minutes at 95° C. and subsequently allowed to cool to room temperature (3 hours) in the switched-off thermoblock. The final oligonucleotide concentration in the reaction mixture was 0.2 μmol·l^−1. Test helquats were present at concentrations of 1 μmol·l^−1. The total reaction volume was 30 μl. The melting temperature of the oligonucleotides alone (without the presence of helquats) under these conditions was 58.1±0.2° C. for F21T and 64.7±0.4° C. for Fmyc27T. For determining the selectivity of binding of helquats to G-quadruplex in comparison with the double-stranded DNA, 50-fold excess of double-stranded DNA ([…] unlabeled competitor ds26 forming a hairpin) is added to the reaction mixture. After the addition to the reaction mixture ds26 competes with labeled oligonucleotide (Fmyc27T or F21T) for ligand binding. […] Melting temperature of oligonucleotides alone in the presence of the competitor is 59.4±0.5° C. for F21T and 66.3° C.±0.6° C. for Fmyc27T.
Fluorescence of FAM donor was measured using real-time PCR apparatus Opticon 2 (excitation 470-505 nm and emission 523-543 nm) in temperature increments of 0.5° C. in the range 25 to 95° C. Evaluation of the sigmoid curves of fluorescence intensity dependent on the temperature were performed in GraphPad Prism 5 (GraphPad Software, Inc., USA). Using nonlinear five parametric regression the inflection point on the curve was calculated that corresponds to the melting temperature (Tm) of the G-quadruplex under the given conditions. The values were obtained from at least three independent measurements.

[2] = 72 hours of treatment, values above 100 μmol·l^−1 obtained by extrapolation, read-out: IC50 HUVEC
[3] = 72 hours, summary of table 9, read-out: concentrations non-toxic towards HUVEC cells

| Structure (SMILES) | IC50 (HUVEC; [2]) [µM] | IC50 (HUVEC; [3]) [µM] | ΔTm (° C.) F21T/ds26 [1] [°C] | ΔTm (° C.) F21T [1] [°C] |
| --- | --- | --- | --- | --- |
| O=[N+]([O-])c1cccc2[nH]cc(/C=C/c3cc[n+]4c(c3)-c3c(ccc5c3-c3cccc[n+]3CC5)CC4)c12 (racemic) [LSA-C9-32, (rac)-(E)-2-(2-(4-nitro-1H-indol-3-yl)vinyl)-6,7,10,11-tetrahydrodipyrido[2,1-a:1′,2′-k][2,9]phenanthroline-5,12-diium trifluoromethanesulfonate] | ≥ 100 | > 100 | 6.6 | 9.3 |
| Cc1c(C)c2c(c3c1CC[n+]1ccc(/C=C/c4cccc5c4oc4ccccc45)cc1-3)-c1c3ccccc3cc[n+]1CC2 (racemic) [MJA-C13-8, (rac)-(E)-13-(2-(dibenzo[b,d]furan-4-yl)vinyl)-6,7-dimethyl-4,5,8,9-tetrahydroisoquinolino[1,2-a]pyrido[1,2-k][2,9]phenanthroline-3,10-diium trifluoromethanesulfonate] | ≥ 100 | – | 1.4 | 7.4 |
| C(=C\c1cccc2c1oc1ccccc12)/c1cc[n+]2c(c1)-c1c(ccc3c1-c1c4ccccc4cc[n+]1CC3)CC2.O=S(=O)([O-])C(F)(F)F.O=S(=O)([O-])C(F)(F)F [MSB-C13-8, (E)-13-(2-(dibenzo[b,d]furan-4-yl)vinyl)-4,5,8,9-tetrahydroisoquinolino[1,2-a]pyrido[1,2-k][2,9]phenanthroline-3,10-diium trifluoromethanesulfonate] | ≥ 100 | – | 3.4 | 9.0 |
| Brc1ccc2[nH]cc(/C=C/c3cc4ccccc4[n+]4c3-c3c(ccc5c3-c3cccc[n+]3CCC5)CCC4)c2c1.O=S(=O)([O-])C(F)(F)F.O=S(=O)([O-])C(F)(F)F [MSC-C9-30, 19-((E)-2-(5-bromo-1H-indol-3-yl)vinyl)-6,7,8,11,12,13-hexahydropyrido[1′″,2′″:1″,2″]azepino[4″,3″:5′,6′]benzo[1′,2′:3,4]azepino[1,2-a]quinoline-5,14-diium trifluoromethanesulfonate] | ≥ 100 | > 100 | – | – |
| C(=C\c1c(-c2ccccc2)[nH]c2ccccc12)/c1cc2ccccc2[n+]2c1-c1c(ccc3c1-c1cccc[n+]1CCC3)CCC2.O=S(=O)([O-])C(F)(F)F.O=S(=O)([O-])C(F)(F)F [MSC-C15-8, 19-((E)-2-(2-phenyl-1H-indol-3-yl)vinyl)-6,7,8,11,12,13-hexahydropyrido[1′″,2′″:1″,2″]azepino[4″,3″:5′,6′]benzo[1′,2′:3,4]azepino[1,2-a]quinoline-5,14-diium trifluoromethanesulfonate] | ≥ 51 | – | – | – |
